Data published in patent US10669302B2, “Crystal form of fludarabine phosphate, preparation method therefor, and application thereof” (Zhejiang Hisun Pharmaceutical Co., Ltd., priority 2015, dated 2020).

Assays:
[1] = Tests of dissolution rates (turbidimeter, purified water); type: physicochemical; set-up: Reading: unit not given here; settings: for Solution state / Turbidity / Reading: 50 mg in 10 ml purified water; for Clarity achieved in purified water: in a short period of time, summary of Table 3; for Reading: turbidimeter
Protocol: The turbidimeter and the test conditions involved in the present invention are: turbidimeter model: MERCK TURBIQUANT 1500IR; operation method: the purified water was used as a zero point control, 50 mg of crystal form I of fludarabine phosphate and 50 mg of crystal form II of fludarabine phosphate were dissolved in 10 ml of purified water respectively as test samples, the specific test data can be seen in Table 3.
Tests of Dissolution Rates for Crystal Form I and Crystal Form II of Fludarabine Phosphate

[2] = Stability tests (sealed PE and aluminum foil bags, liquid chromatography); type: physicochemical; settings: for Stability in words: under room temperature and refrigerated conditions, summary of Table 4
Protocol: The liquid chromatography test conditions involved in the present invention are: chromatographic column: SHIMADZU, VP-ODS, 4.6 mm×15 cm 5 μm or equivalent;
mobile phase A: 10 mM monopotassium phosphate (0.01 mol/l):methanol=47:3; detection wavelength: 260 nm; flow rate: 1.0 ml/min; injection volume: 10 μl.
Packaging condition: crystal form I and crystal form II of fludarabine phosphate were first sealed and packaged with PE bags respectively, and then sealed and packaged with aluminum foil bags outside, the samples were reserved at room temperature and refrigerated conditions, the samples were tested with the liquid chromatography. The test condition of the liquid chromatography is described in SUMMARY OF THE INVENTION section of this application.

[3] = 10 s, listed as Cyrstal form II
[4] = 40 s, listed as Cyrstal form II
[5] = before the samples were reserved
[6] = refrigerated (2-10° C.), humidity 75%, reserved for five months
[7] = refrigerated (2-10° C.), humidity 75%, reserved for four months
[8] = refrigerated (2-10° C.), humidity 75%, reserved for one month
[9] = refrigerated (2-10° C.), humidity 75%, reserved for six months
[10] = refrigerated (2-10° C.), humidity 75%, reserved for three months
[11] = refrigerated (2-10° C.), humidity 75%, reserved for two months
[12] = room temperature (10-30° C.), humidity 75%, reserved for five months
[13] = room temperature (10-30° C.), humidity 75%, reserved for four months
[14] = room temperature (10-30° C.), humidity 75%, reserved for one month
[15] = room temperature (10-30° C.), humidity 75%, reserved for six months
[16] = room temperature (10-30° C.), humidity 75%, reserved for three months
[17] = room temperature (10-30° C.), humidity 75%, reserved for two months

Row | Solution state ([1]; 70 s) | Solution state ([1]; 80 s) | Solution state ([1]; 90 s) | Solution state ([1]; 100 s) | Clarity achieved in purified water [1] | Liquid chromatography result of stability sample [2, 5] [%] | Liquid chromatography result of stability sample [2, 6] [%] | Liquid chromatography result of stability sample [2, 7] [%] | Liquid chromatography result of stability sample [2, 8] [%] | Liquid chromatography result of stability sample [2, 9] [%] | Liquid chromatography result of stability sample [2, 10] [%] | Liquid chromatography result of stability sample [2, 11] [%] | Liquid chromatography result of stability sample [2, 12] [%] | Liquid chromatography result of stability sample [2, 13] [%] | Liquid chromatography result of stability sample [2, 14] [%] | Liquid chromatography result of stability sample [2, 15] [%] | Liquid chromatography result of stability sample [2, 16] [%] | Liquid chromatography result of stability sample [2, 17] [%] | Stability in words [2] | also measured | Compound
1 | Clear | Clear | Clear | Clear | good clarity | 99.677 | 99.677 | 99.677 | 99.677 | 99.677 | 99.677 | 99.677 | 99.663 | 99.663 | 99.673 | 99.663 | 99.667 | 99.668 | good stabilities | Solution state ([1]; 5 s, listed as Cyrstal form II): Turbid; Turbidity ([1]; 5 s, listed as Cyrstal form II): Sample >1; Solution state [1, 3]: Turbid; Turbidity [1, 3]: Sample >1; Solution state ([1]; 20 s, listed as Cyrstal form II): Turbid; Solution state ([1]; 30 s, listed as Cyrstal form II): Turbid; Solution state [1, 4]: Turbid; Reading [1, 4]: 6.41; Reading ([1]; 50 s, listed as Cyrstal form II): 4.54; Reading ([1]; 60 s, listed as Cyrstal form II): 3.32; Reading ([1]; 70 s, listed as Cyrstal form II): 2.56; Reading ([1]; 80 s, listed as Cyrstal form II): 2.41; Reading ([1]; 90 s, listed as Cyrstal form II): 2.29; Reading ([1]; 100 s, listed as Cyrstal form II): 2.29 | Nc1nc(F)nc2c1ncn2[C@@H]1O[C@H](COP(=O)(O)O)[C@@H](O)[C@@H]1O [Crystal form II, 9-β-D-arabinofuranosyl-2-fluoroadenine-5′-phosphate]
2 | Clear | Clear | Clear | Clear | good clarity | 99.685 | 99.685 | 99.685 | 99.685 | 99.685 | 99.685 | 99.685 | 99.684 | 99.684 | 99.685 | 99.684 | 99.685 | 99.685 | good stabilities | Solution state ([1]; 5 s): Clear; Solution state ([1]; 10 s): Clear; Solution state ([1]; 20 s): Clear; Solution state ([1]; 30 s): Clear; Solution state ([1]; 40 s): Clear; Solution state ([1]; 50 s): Clear; Solution state ([1]; 60 s): Clear; Reading ([1]; 5 s): 2.2; Reading ([1]; 10 s): 1.75; Reading ([1]; 20 s): 1.75; Reading ([1]; 30 s): 1.75; Reading ([1]; 40 s): 1.75; Reading ([1]; 50 s): 1.75; Reading ([1]; 60 s): 1.75; Reading ([1]; 70 s): 1.75; Reading ([1]; 80 s): 1.75; Reading ([1]; 90 s): 1.75; Reading ([1]; 100 s): 1.75 | Nc1nc(F)nc2c1ncn2[C@@H]1O[C@H](COP(=O)(O)O)[C@@H](O)[C@@H]1O [Crystal form I, 9-β-D-arabinofuranosyl-2-fluoroadenine-5′-phosphate]
